Assay results from patent US9296710B2, “Bicyclo (3.1.0) hexane-2, 6-dicarboxylic acid derivatives as mGlu2 receptor agonist” (Eli Lilly and Company, priority 2011, dated 2016).
Each block holds one compound with its values, some of them ahead of it.

Assays:
[1] = both, human, pH 7.4
Protocol: Liver S9 fractions are obtained from Xenotech LLC (Lenexa, Mo.). The lot is from a pool of two donors, one male and one female. The liver S9 fraction is prepared and diluted using a homogenization buffer consisting of 50 mM Tris, pH 7.4 at 4° C. and 150 mM potassium chloride without EDTA. Prodrug compounds are incubated in the liver homogenate for 2 hours at 37° C., after which the concentration of compound is determined by LC/MS/MS. Hydrolysis of Clopidogrel to Clopidogrel Carboxylic Acid is utilized as an assay positive control.
Incubations are conducted in 96-well format and all prodrug compounds are run in duplicate on each day. Stock prodrug compound solutions are prepared in water at a concentration of 1 mM. Human liver S9 fraction is diluted to a final protein concentration of 0.5 mg/mL in 100 mM PBS buffer, pH 7.4. […]
LC/MS/MS quantification of compound formed during the incubation is performed on a Sciex API 4000, Analyst version 1.4.2, TURBOIONSPRAY®, positive ionization, and Selected Reaction Monitoring (SRM). […]
Concentrations of hydrolyzed compound in the incubation mixtures are determined from standard curves prepared by replicate two-fold dilution starting at 10 μM in 100 mM PBS pH 7.4 and subsequently quenched with methanol-internal standard solution identical to the samples. Averages and standard deviations are calculated using MICROSOFT® Office EXCEL® 2007. […]

[2] = biological target: T1, human mGlu2 receptor (Homo sapiens, UniProt Q14416); test: Human mGlu2 Agonist FLIPR Assay; format: cell-based
T1 construct: expressed in transfected cells; host or cells: AV-12 cells (Syrian hamster fibroblasts), co-transfected with rat EAAT1 and Galpha15
Text: AV-12 cell lines, derived from Syrian Hamster fibroblasts and stably expressing the human mGlu2 receptor and co-transfected with the rat glutamate transporter EAAT 1 (Excitatory Amino Acid Transporter 1) and the Gα15 subunit, are used for these studies. The expression of Gα15 allows Gi-coupled receptors to signal through the phospholipase C pathway, resulting in the ability to measure receptor activation by a fluorometric calcium response assay. The cell lines are maintained by culturing in Dulbecco's Modified Eagle's Medium (DMEM) with high glucose and pyridoxine hydrochloride supplemented with 5% dialyzed fetal bovine serum, 1 mM sodium pyruvate, 10 mM HEPES [4-(2-hydroxyethyl)-1-piperazineethanesulfonic acid], 1 mM of L-glutamine, and 5 μg/mL blasticidin (all media are purchased from Invitrogen). Confluent cultures are passaged biweekly using an enzyme-free dissociation solution (Chemicon S-004-B).
Intracellular calcium levels are monitored before and after the addition of compounds using a Fluorometric Imaging Plate Reader (FLIPR®, Molecular Devices). The assay buffer is comprised of Hank's Buffered Salt Solution (HBSS; Sigma) supplemented with 20 mM HEPES. […] The dye solution is removed and replaced with fresh assay buffer (50 μL per well). […] Results are analyzed using PRISM® v4.03 (GraphPad Software). […] Exemplified compounds of the present invention are solubilized as 10 mM stocks in 0.1N NaOH and stored at −20 C. They are diluted through a three-fold dilution series into assay buffer. After taking an initial 5-sec fluorescent read on the FLIPR® instrument, a compound of the present invention is added to the cell plate (50 μL per well). Data are collected every second for the first 30 seconds and then every 3 seconds for a total of 90 seconds in order to detect agonist activity. The maximal response is defined as that induced by ECmax (100 μM glutamate). The compound effect is measured as maximal minus minimal peak heights in relative fluorescent units (RFUs) corrected for basal fluorescence measured in the absence of glutamate. Determinations are carried out using single plates. Agonist effects are quantified as percent stimulation induced by compound alone relative to the maximal glutamate response. All data are calculated as relative EC50 values using a four-parameter logistic curve fitting program (ACTIVITY BASE® v5.3.1.22).

[3] = system: stress-induced hyperthermia in rats; test: Attenuation of Stress-Induced Hyperthermia in Rats; format: in vivo, rat; settings: i.p.
Text: In many anxiety disorders, hyperthermia occurs as part of the pathology and is considered a symptom of the disease. Compounds which attenuate stress-induced hyperthermia in animals are believed to be useful in treating anxiety disorders in humans. Generalized anxiety disorder is an example of such disorders that may be treated with such compounds. The conventional and minimally-invasive method for analyzing stress-induced hyperthermia is by measuring body temperature, and stress-induced increases in body temperature, via rectal thermometer. Male Fischer F-344 rats (Harlan, Indianapolis, Ind., USA) weighing between 275-350 g are tested. All animals are individually-housed with food and automated water available ad libitum, and maintained on a 12 h light/dark cycle (lights on at 06:00) Animals are fasted for approximately 12-18 hours before the experiment, which is conducted during the light phase. Rats are dosed one hour prior to the experiment by intraperitoneal (i.p.) route of administration in a dose volume of 1 mL/kg. The vehicle used was water with enough NaOH added to achieve a pH between 5-7. The mGluR5 antagonist MTEP (3-[(2-methyl-1,3-thiazol-4-yl)ethynyl]pyridine) and mGlu2/3 agonist LY317206 were used as quality controls, given that they produced reliable efficacy in this model Immediately following dosing, rats are returned to their home cage, and the experimenter turns off the lights and leaves the room. The dosing room is darkened for the remainder of the 1-hr pretreatment period.
After the pretreatment period, rats are taken individually to a brightly lit adjacent room where baseline body temperatures are determined by insertion of a rectal probe lubricated with mineral oil. Body temperature is assessed using a […] BAT-12® Microprobe Thermometer with a […] RET-2® rat rectal probe (Physitemp Instruments Inc., Clifton, N.J., USA). The probe is inserted approximately 2 cm into the rectum, to measure the core body temperature (this is the baseline body temperature, T1, in degrees Celsius). Ten minutes later a second body temperature measurement is recorded (T2). […]

[4] = system: PCP-induced hyperlocomotor activity in rats; test: Reversal of Phencyclidine (PCP)-Induced Hyperlocomotor Activity in Rats; format: in vivo; settings: Rattus norvegicus
Text: Administration of NMDA receptor antagonists, such as ketamine or phencyclidine (PCP), produces psychotomimetic-like effects in humans that are similar to those symptoms observed in patients with schizophrenia.
Motor activity is monitored by placing individual male, Sprague-Dawley (Harlan, Indianapolis, Ind.) rats in transparent, plastic shoe-box cages of the dimensions 45×25×20 cm, with 1 cm depth of wood chips as bedding, and a metal grill on top of the cage. Motor monitors (Kinder Scientific) consist of a rectangular rack of 12 photobeams arranged in an 8×4 formation, (or a high density grouping of 22 in a 15×7 pattern) at a height of 5 cm, with a second rack (for measuring rearing behaviors) at a height of 15 cm. The shoe box cage is placed inside of these racks, with the racks on a 3 foot high tabletop in an isolated room. […] On the test day, rats are placed in the test cage and allowed to acclimate for 30 minutes prior to PCP challenge; rats are monitored for an additional 60 minutes following PCP administration.
Data analysis and ED50 calculations are conducted using GraphPad PRISM® (San Diego, Calif. USA). Power analyses have determined that 8-10 rats per group are needed to have appropriate statistical power for detecting treatment differences (power=0.8). […]

T1 sequence (Q14416 19-872): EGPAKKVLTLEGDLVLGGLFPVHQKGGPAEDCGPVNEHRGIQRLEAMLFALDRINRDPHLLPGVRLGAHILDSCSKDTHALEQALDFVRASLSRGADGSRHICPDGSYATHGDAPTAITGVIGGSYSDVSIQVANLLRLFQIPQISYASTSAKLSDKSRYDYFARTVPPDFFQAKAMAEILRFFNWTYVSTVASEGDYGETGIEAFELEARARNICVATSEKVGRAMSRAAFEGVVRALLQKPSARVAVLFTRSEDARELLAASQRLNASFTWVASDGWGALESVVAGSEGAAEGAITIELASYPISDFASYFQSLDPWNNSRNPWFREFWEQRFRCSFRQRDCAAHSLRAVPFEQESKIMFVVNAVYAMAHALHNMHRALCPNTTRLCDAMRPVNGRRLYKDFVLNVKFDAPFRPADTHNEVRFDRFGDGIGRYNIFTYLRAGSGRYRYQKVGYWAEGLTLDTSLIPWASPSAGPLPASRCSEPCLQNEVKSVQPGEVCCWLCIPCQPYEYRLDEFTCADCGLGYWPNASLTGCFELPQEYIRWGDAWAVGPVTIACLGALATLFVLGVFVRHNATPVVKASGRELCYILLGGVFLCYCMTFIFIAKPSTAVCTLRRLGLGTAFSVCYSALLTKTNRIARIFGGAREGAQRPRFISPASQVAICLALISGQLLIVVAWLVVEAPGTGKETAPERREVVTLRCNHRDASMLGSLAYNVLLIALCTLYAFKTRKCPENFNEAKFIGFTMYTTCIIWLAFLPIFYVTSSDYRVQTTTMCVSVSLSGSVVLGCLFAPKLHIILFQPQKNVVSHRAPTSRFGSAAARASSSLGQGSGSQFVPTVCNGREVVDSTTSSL

Hydrolysis of Clopidogrel to Clopidogrel Carboxylic Acid (positive control) [1]: 73.0%
Structure (SMILES): COC(=O)[C@H](c1ccccc1Cl)N1CCc2sccc2C1 [Clopidogrel]

EC50 ([2]; hMGLUR2 FLIPR assay, AV-12 cells expressing human mGlu2, calcium response, read-out: Relative EC50): 69.1 nM
Emax ([2]; percent stimulation relative to maximal glutamate response (100 μM glutamate), read-out: Relative % Efficacy): 89%
Structure (SMILES): N[C@@]1(C(=O)O)C[C@H](Sc2nc[nH]n2)[C@H]2[C@H](C(=O)O)[C@H]21 [Example 10, (1R,2S,4S,5R,6R)-2-amino-4-(1H-1,2,4-triazol-3-ylsulfanyl)bicyclo[3.1.0]hexane-2,6-dicarboxylic acid]
maximal reduction of stress-induced hyperthermia ([3]; at 10 mg/kg): 75%
T35 (dose producing 35% reduction in stress-induced hyperthermic response) ([3]; one hour pretreatment): 1.7 mg/kg
ED50 ([4]; i.p. administration, 30 minutes prior to 5 mg/kg PCP): 0.9 mg/kg

Structure (SMILES): CSCC[C@H](N)C(=O)N[C@@]1(C(=O)O)C[C@H](Sc2nnc[nH]2)[C@H]2[C@H](C(=O)O)[C@H]21.Cl [Example 25, (1R,2S,4S,5R,6R)-2-(L-methionylamino)-4-(4H-1,2,4-triazol-3-ylsulfanyl) bicyclo[3.1.0] hexane-2,6-dicarboxylic acid hydrochloride]
ED50 ([4]; oral administration (prodrug), overnight fasted, 4 hours prior to 5 mg/kg PCP): 6.4 mg/kg
